Tests used:
[1] = system: mouse formalin-induced pain model; assay: ET-1-induced enhancement of pain responses in mouse formalin-induced pain model; assay type: in vivo
Experimental: Suppressive effects of Compound 1 to the enhancement of pain responses induced by ET-1 in mouse formalin-induced pain model
Male ICR mice (age of 5 weeks; Nippon SLC) were used in these experiments.
The mice were placed in a cage for observation, to acclimate the mice to the environment for 5 minutes or longer; then, physiological saline of 20 μl was subcutaneously injected to the mouse left hind paws, while 0.7% formalin-containing physiological saline of 20 μl was subcutaneously injected to the mouse right hind paws. The duration of licking and biting reactions emerging immediately thereafter was counted every 5 minutes, for 40 minutes. After the termination of the counting, both the ankles were amputated and weighed. The reaction time immediately after formalin injection to 5 minutes later was defined as first phase; and the 30 minutes reaction time from 10 minutes after injection until 40 minutes later was defined in total as second phase, which were used as the indices of pain. Additionally, the edema calculated on the basis of the right foot weight minus the left foot weight (in mg) was used as an index of inflammatory reaction. Additionally, in all cases the licking reaction time was counted between 10:00 and 18:00.
0.7% formalin-containing physiological saline containing ET-1 at doses of 3, 10 and 30 pmol/paw was subcutaneously injected in the right hind paws to examine the action of ET-1 to enhance formalin-induced pain and edema.
Compound 1 (0.3 to 3 mg/kg) was orally administered at a dose of 1 ml/100 g. Sixty minutes after oral administration, 0.7% formalin-containing physiological saline containing ET-1 (10 pmol/paw) was subcutaneously injected in the right hind paws, to examine the effect of the Compound 1 on the ET-1-induced enhancements of formalin-induced pain and edema.
The results are shown in the form of mean±standard error. The significant difference between two groups was calculated the p-value by Students unpaired t-test. The significant difference between groups was analyzed by one-way analysis of variance, to calculate the p-values by the Dunnett's multiple range test. The p-value below 5% was defined as statistically significant.

[2] = system: MC3T3-E1, mouse osteoblast-like cells; assay: ET-1-induced DNA synthesis ([3H]-thymidine incorporation) in MC3T3-E1; assay type: cell-based
Experimental: (§1) MC3T3-E1, mouse osteoblast-like cells, was used in these experiments (Journal of Cell Biology,96(1),191-198,1983).
As DNA synthesis level, the incorporation of [^3H]-labeled thymidine was assayed. The cells were seeded at a density of 1.5×10^4 cells/well in a 96-well plate using 0.2% FCS culture medium and cultured for 2 days. Subsequently, vehicle or ET-1 was added to the plate and cultured for 24 hours. Continuously, [^3H-methyl]-thymidine was added at 0.5 μCi/well to the culture and pulse-labeling performed for 6 hours. Continuously, SDS solution to a final concentration of 0.2% was added for solubilization of the cell, and after solubilization the radioactivity of [^3H-methyl]-thymidine used for DNA synthesis was counted with a liquid scintillation counter. As a control, the count of a culture to which the vehicle was added was defined 100%, thus the percentage increase of DNA synthesis was calculated. […]
(§2) The results are shown in the form of mean±standard error. The significant difference between groups was analyzed by one-way analysis of variance, to calculate the p-values by the Dunnett's multiple range test. […] At each experiment, the EC50 value of ET-1 and the IC50 value of the Compound 1 were calculated by the Logistic regression analysis.

[3] = system: MC3T3-E1, mouse osteoblast-like cells; assay: ET-1-induced cell number increase in MC3T3-E1 (cell counting kit, WST-1); assay type: cell-based
Experimental: as §1
Cell number was counted by using a reagent solution of a cell counting kit (DOJINDO). The cells were seeded at a density of 1.0×10^4 cells/well in a 24-well plate using 0.5% FCS culture medium and cultured for one day. Subsequently, vehicle or ET-1 was added to the plate and cultured for 72 hours. Continuously, a reagent solution was added at 100 μl/well to the culture and incubated at 37° C. for 3 hours. After this reaction, 200-μl portions were transferred from the individual wells of the 24-well plate to a 96-well plate, to measure the absorbance (at a wave length of 405 nm and a reference wave length of 650 nm) with a plate reader. As a control, the count of a culture to which the vehicle was added was defined 100%, thus the percentage increase of cell number was calculated. […]
as §2

[4] = system: PPC-1, hormone-refractory human prostate cancer cells; assay: ET-1-induced cell growth ([3H]-thymidine incorporation) of PPC-1; assay type: cell-based
Experimental: PPC-1, hormone-refractory human prostate cancer cells, was used in these experiments (International Journal of Cancer,44,898-903,1989).
DNA synthesis level was measured as the index of cell growth. As DNA synthesis level, the incorporation of [^3H]-labeled thymidine was assayed. The cells were seeded at a density of 1×10^4 cells/well in a 96-well plate using no FCS-added culture medium and cultured for 5 days. Subsequently, vehicle or ET-1 was added to the plate and cultured for 24 hours. Continuously, [^3H-methyl]-thymidine was added at 0.5 μCi/well to the culture and pulse-labeling performed for 6 hours. Continuously, SDS solution to a final concentration of 0.2% was added for solubilization of the cell, and after solubilization the radioactivity of [^3H-methyl]-thymidine used for DNA synthesis was counted with a liquid scintillation counter. As a control, the count of a culture to which the vehicle was added was defined 100%, thus the percentage increase of DNA synthesis was calculated.
In this experiment, ET-1 and Compound 1 were within the concentration ranges of 10^−13 to 10^−6 M (10-fold dilution series) and 10^−10 to 3×10^−6 M (3-fold dilution series), respectively, as the final concentrations thereof. Compound 1 was added about 2 hr before the addition of ET-1.
The results are shown in the form of mean t standard error. The significant difference between groups was analyzed by one-way analysis of variance, and calculated the p-values by the Dunnett's multiple range test. The p-value below 5% was defined as statistically significant. The IC50 value of the Compound 1 were calculated by the Logistic regression analysis.

[5] = 0.3, 1 and 3 mg/kg p.o., 60 min before ET-1 10 pmol/paw

IC50 ([2]; ET-1 10^−10 M, read-out: IC50 of ET-1-induced increase in [3H]-thymidine incorporation) [nM]	IC50 ([4]; ET-1 10^−8 M, [3H]-thymidine incorporation, read-out: IC50 of ET-1-induced promotion of PPC-1 cell growth) [nM]	EC50 ([2]; ET-1 10^−13 to 10^−6 M, read-out: EC50 of increase of [3H]-thymidine incorporation (DNA synthesis)) [nM]	Compound	suppression of ET-1-induced enhancement of formalin-induced edema [1, 5]	suppression of ET-1-induced enhancement of formalin-induced pain, first phase [1, 5]	suppression of ET-1-induced enhancement of formalin-induced pain, second phase [1, 5]	IC50 ([3]; ET-1 10^−9 M) [nM]	concentration above which the inhibitory effect was statistically significant ([4]; ET-1 10^−8 M)	ET-1-induced enhancement of formalin-induced edema ([1]; ET-1 3, 10 and 30 pmol/paw with 0.7% formalin s.c. in hind paw)	ET-1-induced enhancement of formalin-induced pain, first phase ([1]; ET-1 3, 10 and 30 pmol/paw with 0.7% formalin s.c. in hind paw, 0-5 min)	ET-1-induced enhancement of formalin-induced pain, second phase ([1]; ET-1 3, 10 and 30 pmol/paw with 0.7% formalin s.c. in hind paw, 10-40 min)	EC50 ([3]; ET-1 10^−12 to 10^−6 M, WST-1) [nM]	concentration above which the effect of ET-1 on [3H]-thymidine incorporation was statistically significant [4]
11.5	28 ± 9.8	–	COc1ccccc1Oc1c(NS(=O)(=O)C=Cc2ccccc2)nc(-c2ncccn2)nc1OC.[K] [Compound 1, N-[6-methoxy-5-(2-methoxyphenoxy)-2-(2-pyrimidinyl)-4-pyrimidinyl]-2-phenylethenesulfoneamide•potassium salt]	significantly suppressed	significantly suppressed	significantly suppressed	9.54	above 3×10^−7 M	–	–	–	–	–
–	–	0.00984	ET-1: endothelin; induces pain in humans and experimental animals; used as stimulus of pain, Ca2+ increase and cell growth [reference compound]	–	–	–	–	–	significantly enhanced	significantly enhanced	significantly enhanced	0.022	above 10^−8 M

Source: US6774131B1, “Remedies for endothelin-induced diseases” (Yamanouchi Pharmaceutical Co., Ltd., priority 2000, dated 2004)
